# Legend:
# Hut-78 cells = experiment: Inhibition in Hut-78 cells (IL-2 stimulated, HTRF); format: cell-based; conditions: Homo sapiens, HuT78; compound 2 hours at 37° C., then IL-2 100 ng/mL 10 min; HTRF; read-out: Hut-78 cells IC50
# Description: Exemplary compounds were assayed to determine potency in inhibiting Hut-78 cells by determining IC50 values.
# Hut-78 cells were cultures in IMDM+20% FBS medium. Cells were maintained in log phase before the assay. Cell pellets were collected and resuspended in serum-free and phenol-free RPMI 1640 medium. 40,000 cells/well (10 μL) were seeded in each well of a 384-well plate and incubated with and without compound for 2 hours at 37° C. and 5% C02. IL-2 was added (2 μL, final concentration 100 ng/mL) and the mixture was incubated for 10 min. Cells were lysed by adding 4 μL labeled antibodies and the mixture was incubated overnight. The plate was read using the HTRF protocol on an Envision plate reader. The data was analyzed using XL-fit software (Supplier: ID business solutions Ltd.; Software version: XL fit 5.0). Inhibition %=(Max−Sample value)/(Max−Min)*100.
# In the table, “A” indicates an IC50 of less than 0.5 μM, “B” indicates an IC50 range from 0.5 μM to 1 μM; and “C” indicates an IC50 range from 1 μM to 10 μM. Also, “na” indicates data is not available.
# JAK3 = target: T1, JAK3 (Homo sapiens, UniProt P52333); experiment: Inhibition of JAK3 kinase, LANCE Ultra TR-FRET assay; format: biochemical; conditions: 2x ATP 8 μM, 15 min pre-incubation, 90 min reaction, 23° C.
# T1 construct: purchased Invitrogen PV4080
# T1 sequence (P52333 1-1124): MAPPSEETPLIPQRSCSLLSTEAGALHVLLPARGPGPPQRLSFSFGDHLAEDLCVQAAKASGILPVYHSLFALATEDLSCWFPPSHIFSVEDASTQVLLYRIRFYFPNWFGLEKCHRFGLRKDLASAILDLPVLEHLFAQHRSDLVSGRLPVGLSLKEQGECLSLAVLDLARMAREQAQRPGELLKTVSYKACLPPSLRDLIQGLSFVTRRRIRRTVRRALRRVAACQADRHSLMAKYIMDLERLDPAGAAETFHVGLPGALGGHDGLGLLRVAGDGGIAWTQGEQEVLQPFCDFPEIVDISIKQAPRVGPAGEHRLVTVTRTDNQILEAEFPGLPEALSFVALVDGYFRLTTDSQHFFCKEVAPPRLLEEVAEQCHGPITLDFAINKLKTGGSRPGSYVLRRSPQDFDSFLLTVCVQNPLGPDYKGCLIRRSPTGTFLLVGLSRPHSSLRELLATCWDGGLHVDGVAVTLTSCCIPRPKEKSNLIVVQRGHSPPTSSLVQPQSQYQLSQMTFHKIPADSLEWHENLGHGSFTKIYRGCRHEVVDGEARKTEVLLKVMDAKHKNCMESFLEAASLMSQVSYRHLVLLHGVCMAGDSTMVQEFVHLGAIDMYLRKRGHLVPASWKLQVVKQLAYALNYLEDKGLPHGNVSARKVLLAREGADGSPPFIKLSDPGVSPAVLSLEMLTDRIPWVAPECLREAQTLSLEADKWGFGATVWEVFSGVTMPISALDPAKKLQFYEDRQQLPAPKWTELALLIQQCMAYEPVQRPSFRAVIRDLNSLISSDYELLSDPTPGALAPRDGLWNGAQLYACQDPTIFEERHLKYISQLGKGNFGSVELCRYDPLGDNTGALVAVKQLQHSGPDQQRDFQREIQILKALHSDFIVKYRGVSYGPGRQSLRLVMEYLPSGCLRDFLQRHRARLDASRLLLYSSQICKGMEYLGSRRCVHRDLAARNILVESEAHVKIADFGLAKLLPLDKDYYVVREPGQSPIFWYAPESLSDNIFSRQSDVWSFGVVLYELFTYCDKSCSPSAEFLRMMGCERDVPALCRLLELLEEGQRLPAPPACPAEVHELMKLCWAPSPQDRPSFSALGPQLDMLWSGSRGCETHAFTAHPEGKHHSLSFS
# How it was run: (§1)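 Enzyme (JAK1 2 nM, […], TYK2 4 nM) preincubated 15 min with compound and 50 nM ULight-JAK-1 peptide, then ATP added (2× stocks: 76, 24, 8, 30 μM respectively); 90 min at 23 °C, pH 7.5. Eu-anti-phosphotyrosine TR-FRET 665/615 ratio; IC50 from 4-parameter fit, 11-point duplicates.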
# JAK2 = target: T2, JAK2 (Homo sapiens, UniProt O60674); experiment: Inhibition of JAK2 kinase, LANCE Ultra TR-FRET assay; format: biochemical; conditions: 2x ATP 24 μM, 15 min pre-incubation, 90 min reaction, 23° C.
# T2 construct: purchased Invitrogen PV4210
# T2 sequence (O60674 whole entry): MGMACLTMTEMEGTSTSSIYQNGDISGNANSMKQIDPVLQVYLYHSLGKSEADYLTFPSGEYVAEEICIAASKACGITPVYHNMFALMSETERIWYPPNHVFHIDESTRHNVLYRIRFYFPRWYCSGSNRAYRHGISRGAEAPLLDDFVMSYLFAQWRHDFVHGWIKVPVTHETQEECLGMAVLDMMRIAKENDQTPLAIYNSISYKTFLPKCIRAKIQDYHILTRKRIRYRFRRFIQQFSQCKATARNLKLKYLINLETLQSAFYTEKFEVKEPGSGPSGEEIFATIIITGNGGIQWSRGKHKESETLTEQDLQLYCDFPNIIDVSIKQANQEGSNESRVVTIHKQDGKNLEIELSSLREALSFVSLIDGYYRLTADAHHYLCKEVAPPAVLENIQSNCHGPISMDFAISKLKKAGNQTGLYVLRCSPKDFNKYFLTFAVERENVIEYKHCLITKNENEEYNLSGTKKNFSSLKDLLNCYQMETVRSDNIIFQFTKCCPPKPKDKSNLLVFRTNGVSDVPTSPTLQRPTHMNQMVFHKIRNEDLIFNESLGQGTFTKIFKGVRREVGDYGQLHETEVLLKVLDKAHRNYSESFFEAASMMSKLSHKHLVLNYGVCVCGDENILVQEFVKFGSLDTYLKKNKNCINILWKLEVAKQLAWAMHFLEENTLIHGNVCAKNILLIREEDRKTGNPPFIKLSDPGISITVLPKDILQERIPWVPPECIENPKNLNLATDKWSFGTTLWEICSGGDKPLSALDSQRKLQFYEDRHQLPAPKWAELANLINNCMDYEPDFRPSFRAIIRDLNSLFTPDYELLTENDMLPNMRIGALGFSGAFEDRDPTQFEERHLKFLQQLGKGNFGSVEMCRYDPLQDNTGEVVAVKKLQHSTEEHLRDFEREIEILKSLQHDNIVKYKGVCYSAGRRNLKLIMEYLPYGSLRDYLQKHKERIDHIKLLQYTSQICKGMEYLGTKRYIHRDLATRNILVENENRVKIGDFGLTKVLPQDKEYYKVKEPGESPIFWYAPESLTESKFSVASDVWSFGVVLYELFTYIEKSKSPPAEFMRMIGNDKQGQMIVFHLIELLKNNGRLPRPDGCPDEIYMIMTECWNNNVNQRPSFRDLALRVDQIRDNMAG
# How it was run: as §1
# JAK1 = target: T3, JAK1 (Homo sapiens, UniProt P23458); experiment: Inhibition of JAK1 kinase, LANCE Ultra TR-FRET assay; format: biochemical; conditions: 2 nM JAK1, 2x ATP 76 μM, 15 min pre-incubation, 90 min reaction, 23° C.
# T3 construct: purchased Invitrogen PV4775
# T3 sequence (P23458 whole entry): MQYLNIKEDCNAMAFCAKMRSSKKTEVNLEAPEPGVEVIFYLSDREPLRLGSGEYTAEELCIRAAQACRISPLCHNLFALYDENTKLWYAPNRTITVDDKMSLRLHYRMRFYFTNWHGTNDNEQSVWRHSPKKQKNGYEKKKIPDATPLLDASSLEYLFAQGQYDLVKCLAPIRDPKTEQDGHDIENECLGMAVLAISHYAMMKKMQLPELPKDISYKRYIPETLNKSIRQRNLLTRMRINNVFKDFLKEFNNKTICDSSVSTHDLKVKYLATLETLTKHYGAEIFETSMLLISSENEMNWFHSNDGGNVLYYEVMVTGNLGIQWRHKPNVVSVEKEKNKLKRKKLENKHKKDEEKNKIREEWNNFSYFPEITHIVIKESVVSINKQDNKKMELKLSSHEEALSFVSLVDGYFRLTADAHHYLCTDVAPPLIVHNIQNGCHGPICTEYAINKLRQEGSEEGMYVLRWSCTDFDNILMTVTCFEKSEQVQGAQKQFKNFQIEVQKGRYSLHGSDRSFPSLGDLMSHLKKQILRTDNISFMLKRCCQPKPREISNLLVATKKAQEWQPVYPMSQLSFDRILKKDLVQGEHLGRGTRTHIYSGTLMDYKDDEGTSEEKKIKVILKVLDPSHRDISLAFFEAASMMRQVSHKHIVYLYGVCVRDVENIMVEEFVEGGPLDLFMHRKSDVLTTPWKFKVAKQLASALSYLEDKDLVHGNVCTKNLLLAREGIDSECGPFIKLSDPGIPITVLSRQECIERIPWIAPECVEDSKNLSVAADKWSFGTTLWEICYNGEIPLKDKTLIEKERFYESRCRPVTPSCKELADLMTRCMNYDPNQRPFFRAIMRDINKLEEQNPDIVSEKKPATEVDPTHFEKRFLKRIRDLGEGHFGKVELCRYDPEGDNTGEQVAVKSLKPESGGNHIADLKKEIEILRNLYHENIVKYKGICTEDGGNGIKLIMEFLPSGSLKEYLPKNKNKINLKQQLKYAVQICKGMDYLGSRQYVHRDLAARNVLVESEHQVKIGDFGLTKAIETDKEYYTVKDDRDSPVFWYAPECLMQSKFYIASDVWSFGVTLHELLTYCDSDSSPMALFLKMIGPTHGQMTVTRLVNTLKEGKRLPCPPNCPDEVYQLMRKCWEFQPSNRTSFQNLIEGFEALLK
# How it was run: as §1
# TYK2 = target: T4, TYK2 (Homo sapiens, UniProt P29597); experiment: Inhibition of TYK2 kinase, LANCE Ultra TR-FRET assay; format: biochemical; conditions: 4 nM TYK2, 2x ATP 30 μM, 15 min pre-incubation, 90 min reaction, 23° C., read-out: tyk IC50
# T4 construct: purchased Invitrogen PR8440C
# T4 sequence (P29597 whole entry): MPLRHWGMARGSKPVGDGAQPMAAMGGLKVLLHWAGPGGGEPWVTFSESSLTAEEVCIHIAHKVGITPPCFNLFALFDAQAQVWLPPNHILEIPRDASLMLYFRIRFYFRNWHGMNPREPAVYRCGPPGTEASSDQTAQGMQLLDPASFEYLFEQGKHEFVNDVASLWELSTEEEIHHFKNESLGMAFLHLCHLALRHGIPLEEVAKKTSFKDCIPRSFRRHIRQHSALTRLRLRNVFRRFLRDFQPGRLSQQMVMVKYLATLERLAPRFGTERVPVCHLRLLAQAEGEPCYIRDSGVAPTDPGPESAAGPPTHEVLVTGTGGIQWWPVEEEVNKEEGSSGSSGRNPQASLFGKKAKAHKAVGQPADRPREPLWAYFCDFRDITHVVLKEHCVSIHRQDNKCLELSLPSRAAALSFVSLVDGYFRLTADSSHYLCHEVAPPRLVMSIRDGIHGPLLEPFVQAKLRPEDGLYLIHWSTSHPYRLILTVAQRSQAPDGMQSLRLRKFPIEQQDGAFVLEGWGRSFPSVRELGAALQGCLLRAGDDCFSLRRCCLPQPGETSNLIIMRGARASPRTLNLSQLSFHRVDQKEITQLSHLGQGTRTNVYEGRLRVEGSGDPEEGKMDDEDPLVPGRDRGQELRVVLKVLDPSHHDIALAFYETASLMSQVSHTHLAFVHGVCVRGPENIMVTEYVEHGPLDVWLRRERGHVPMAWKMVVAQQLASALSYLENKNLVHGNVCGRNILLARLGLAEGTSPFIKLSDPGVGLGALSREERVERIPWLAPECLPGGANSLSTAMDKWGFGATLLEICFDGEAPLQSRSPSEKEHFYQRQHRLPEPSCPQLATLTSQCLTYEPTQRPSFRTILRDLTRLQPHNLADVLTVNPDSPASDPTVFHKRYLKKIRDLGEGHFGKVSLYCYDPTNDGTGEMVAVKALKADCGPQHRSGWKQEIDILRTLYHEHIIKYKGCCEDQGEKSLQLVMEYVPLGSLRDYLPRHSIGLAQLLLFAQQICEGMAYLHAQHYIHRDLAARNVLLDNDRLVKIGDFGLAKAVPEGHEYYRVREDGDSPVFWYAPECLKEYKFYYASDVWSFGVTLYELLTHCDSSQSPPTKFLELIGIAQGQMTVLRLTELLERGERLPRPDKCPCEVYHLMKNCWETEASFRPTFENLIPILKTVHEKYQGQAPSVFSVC
# How it was run: as §1
structure (smiles),measurement,setting,value
O=C(N[C@H]1C[C@@](O)(C(F)(F)F)C1)c1noc2c1CN(c1ncnc3[nH]ccc13)CC2 [Compound 202],IC50,Hut-78 cells,< 500 nM
same,IC50,JAK3,< 100 nM
same,IC50,JAK2,< 100 nM
same,IC50,JAK1,< 100 nM
same,IC50,TYK2,500 to 2000 nM
